Data reported in US20110098358A1, “HUMAN BETA3 ADRENERGIC RECEPTOR LIGAND, AND FOOD OR PHARMACEUTICAL PRODUCT CONTAINING THE SAME” (RICOM CORPORATION, priority 2008, published 2011).
Structures can show the parent of a compound that is named as a salt.

How the values were obtained:
[1] = target: T1, human recombinant adrenergic β3 receptor (Homo sapiens, UniProt P13945); experiment: adrenergic β3 receptor binding activity ([125I]cyanopindolol); conditions: HEK-293 cells, 0.5 nM [125I]cyanopindolol, Tris buffer pH 7.4, 25° C., 90 minutes
T1 construct: expressed in transfected cells; host or cells: HEK-293 cells
Method: The adrenergic β3 receptor binding activity can be measured according to, for example, the method described in Cell Biology: Feve et al, Proc. Natl. Acad. Sci. USA 91 (1994), Vol. 91, pp. 5677-5681, using HEK-293 cells which express a human recombinant adrenergic β3 receptor. That is, a solution of a sample in 1% DMSO, and 0.5 nM [^125I]cyanopindolol are added to Tris buffer (pH 7.4), and the HEK-293 cells are cultured therein at 25° C. for 90 minutes, followed by filtration and washing of the cells, and measurement of the radioactivity of the adrenergic β3 receptor binding ligand.
Each component containing the components shown in Table 1 below was dissolved in DMSO to 1 w/v %, and the resulting solution was added to an adipocyte differentiation medium (Primary Cell Co., Ltd., Lot No. 080411) to a final concentration of 10 μg/mL before use. The test of the adrenergic β3 receptor binding activity was carried out by the above-mentioned method.

[2] = test system: brown adipocytes (BAT); experiment: observation of cell morphology (BAT), fat accumulation and reaction to NE; type: cell-based, rat; conditions: 1 hour on last day
Method: Using 4 types of rat primary preadipocytes (visceral fat, […], subcutaneous white fat and brown fat), the fat accumulation-suppressing effect and fat-releasing effect by the composition of the present invention were preliminarily studied in vitro. […] The test of the adrenergic β3 receptor binding activity was carried out by the above-mentioned method. The Preadipocyte Culture kit H-3 with 3 types of cells (primary, rat, Primary Cell Co., Ltd.: visceral preadipocytes (hereinafter referred to as VAC), Lot No. FIHA-FV; subcutaneous white preadipocytes (hereinafter referred to as […] preadipocytes (hereinafter referred to as EAC), FIHA-FE) and the Brown Adipocyte Culture kit F-8 (primary, rat, Primary Cell Co., Ltd.: Lot No. HDOA-1) were used. Cells seeded on a 24-well plate were cultured in a growth medium for 3 days, and the cells were confirmed to have become confluent. After replacing the medium with a differentiation induction medium, the culture was continued for 2 days, and the negative control substance and the test substance were prepared to a predetermined concentration with a maintenance medium, followed by addition of the prepared medium and 4 days of culture. The treatment with NE was carried out in the same manner as in VAC, using the maintenance medium. […]

[3] = test system: periepididymal preadipocytes (EAC); experiment: observation of cell morphology (EAC), fat accumulation and reaction to NE; type: cell-based, rat; conditions: NE 1×10^−6 M, 6 hours on last day
Method: (§1) Using 4 types of rat primary preadipocytes (visceral fat, […], subcutaneous white fat and brown fat), the fat accumulation-suppressing effect and fat-releasing effect by the composition of the present invention were preliminarily studied in vitro. […] The test of the adrenergic β3 receptor binding activity was carried out by the above-mentioned method. The Preadipocyte Culture kit H-3 with 3 types of cells (primary, rat, Primary Cell Co., Ltd.: visceral preadipocytes (hereinafter referred to as VAC), Lot No. FIHA-FV; subcutaneous white preadipocytes (hereinafter referred to as […] preadipocytes (hereinafter referred to as EAC), FIHA-FE) and the Brown Adipocyte Culture kit F-8 (primary, rat, Primary Cell Co., Ltd.: Lot No. HDOA-1) were used. The 3 types of preadipocytes (visceral fat, […] subcutaneous white fat) were seeded into 12 wells in a 24-well plate at a cell number of 1.5×10^6 (1.2×10^5 cells/mL/well), followed by preculture for 4 days in the adipocyte differentiation medium. Thereafter (on day 4 after seeding), the negative control substance and the test substance were prepared to a predetermined concentration in a visceral fat differentiation medium, and the prepared medium was added to the cells. The medium was replaced on days 0, 2 and 4 after the addition of the test substance (days 4, 6 and 8 after seeding), while adding freshly prepared medium after the collection. […]

[4] = test system: visceral preadipocytes (VAC); experiment: observation of cell morphology (VAC), fat accumulation and reaction to NE; type: cell-based, rat; conditions: NE 1×10^−6 M, 6 hours on last day
Method: as §1

[5] = test system: subcutaneous white preadipocytes (SAC); experiment: observation of cell morphology (SAC), fat accumulation and reaction to NE; type: cell-based, rat; conditions: NE 1×10^−6 M, 6 hours on last day
Method: as §1

T1 sequence (P13945 whole entry): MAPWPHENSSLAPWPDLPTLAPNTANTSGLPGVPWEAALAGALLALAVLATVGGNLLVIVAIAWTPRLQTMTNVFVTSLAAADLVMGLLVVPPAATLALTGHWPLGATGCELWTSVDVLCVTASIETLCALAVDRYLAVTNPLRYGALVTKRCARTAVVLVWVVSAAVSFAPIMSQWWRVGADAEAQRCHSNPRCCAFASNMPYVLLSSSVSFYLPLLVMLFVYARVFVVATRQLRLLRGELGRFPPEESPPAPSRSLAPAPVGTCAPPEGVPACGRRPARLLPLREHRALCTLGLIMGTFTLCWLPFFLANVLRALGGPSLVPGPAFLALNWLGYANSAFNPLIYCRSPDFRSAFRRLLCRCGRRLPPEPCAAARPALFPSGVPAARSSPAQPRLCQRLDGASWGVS

Row | SMILES | Binding activity (%) [1] [%] | reaction by 1 hour of treatment with NE (morphology) [2] | reaction by the addition of NE (morphology) [3] | reaction by treatment with NE (morphology) [4] | reaction by the addition of NE (morphology) [5]
1 | CC/C=C\C/C=C\C/C=C\CCCCCCCC(=O)O [compound 7, C18:3α] | 22 | – | – | – | –
2 | NC[C@H](O)c1ccc(O)c(O)c1 [NE, (−)-Norepinephrine(+)-bitartrate salt hydrate] | – | sufficiently confirmed | reaction by the addition of NE was obtained | reaction by 6 hours of the treatment with NE was obtained | reaction by the addition of NE was obtained
